Laboratory results taken from patent publication US9248199B2, “1:1 adducts of sickle hemoglobin” (Global Blood Therapeutics, Inc., priority 2014, dated 2016).

Q: With `CCn1nccc1N(C(=O)COc1cccc(O)c1C=O)C(C)C` [compound 22, N-(1-ethyl-1H-pyrazol-5-yl)-2-(2-formyl-3-hydroxyphenoxy)-N-isopropylacetamide] as the compound, how does the melting point read?
A: 179 to 182 °C
